Earlier results in paper PMC4263154 (Journal of Clinical Pharmacology, 2013).
Entries after “also recorded” stand apart in the source; their conditions may differ. Where two headings read alike, the source gives them in different places.

Columns and labels:
[1] = tested on: MC4R
[2] = not given; remark: listed apart in the source

Compound | effect on body weight and energy intake (Phase 1 and 2 clinical trials) | erectogenic effect (clinical trial) | effect on food intake or energy expenditure ([1]; MC4R knock-out mice) | effect on food intake or energy expenditure ([1]; wild-type mice) | sexual arousal ([2]; females with sexual behavior disorders) | erectogenic activity ([2]; males with erectile dysfunction)
CC(=O)N[C@@H](C)c1cc(Cl)ccc1C1CCN(C(=O)[C@@H]2CN(C(C)(C)C)C[C@H]2c2ccc(F)cc2F)CC1 [MK-0493] | failed to demonstrate effect; also recorded: lack of efficacy | failed to demonstrate the same effect | – | – | – | –
melanotan-II | – | – | no effect | did exert these effects | arousal | erectogenic activity
